We go through 73 molecules from the RepoRT retention time repository (doi:10.1016/j.chroma.2015.11.014).

The nature of this data set: RP, Agilent ZORBAX Eclipse Plus C18, 150 × 2.1 mm, 3.5 µm, 40 °C, 0.3 mL/min, estimated dead time 1.1 min; A: water + 0.1% formic acid; B: acetonitrile + 0.1% formic acid; gradient (min/%B) 0/2 1/2 2/20 16.5/98 22/98. The conditions noted are these: stereoisomer not certain.

As for `COC(=O)C1=C(C)NC(C)=C(C(=O)OC)C1c1ccccc1[N+](=O)[O-]`, the LC retention time was 10.9 min.
Regarding `CC(C)(C)c1cc([N+](=O)[O-])cc([N+](=O)[O-])c1O`, the LC retention time was 13.9 min.
As for `Cn1cnc2c(=O)[nH]c(N)nc21`, the LC retention time is 2.43 min.
On to `CC1(C)CC(OC(=O)CCCCCCCCC(=O)OC2CC(C)(C)NC(C)(C)C2)CC(C)(C)N1`, for which the LC retention time was 6.57 min.
For the molecule `Oc1cccc2n[nH]nc12`, the LC retention time is 5.34 min.
Consider `Cn1cnc2c1c(=O)[nH]c(=O)n2C`, for which the LC retention time is 5.24 min.
Take `O=C(c1ccccc1)c1ccc2n1CCC2C(=O)O` (stereo not drawn): the LC retention time is 9.5 min.
For the molecule `Nc1nc2c(ncn2COC(CO)CO)c(=O)[nH]1`, the LC retention time was 2.23 min.
On to `CCCc1nc2c(C)cc(-c3nc4ccccc4n3C)cc2n1Cc1ccc(-c2ccccc2C(=O)O)cc1`, for which the LC retention time is 8.86 min.
For the molecule `CC12CCC3c4ccc(O)cc4CCC3C1CCC2O` (stereo not drawn), the LC retention time was 10.4 min.
As for `CCCCCCCCCCCCCC[P+](CCCC)(CCCC)CCCC`, the figure is 14.9 min; as for `Nc1nc(N)c2nc(-c3ccccc3)c(N)nc2n1`, 5.2 min; as for `c1ccc(P(=N[P+](c2ccccc2)(c2ccccc2)c2ccccc2)(c2ccccc2)c2ccccc2)cc1`, 12.3 min.
As for `O=C([O-])CCCC[P+](c1ccccc1)(c1ccccc1)c1ccccc1`, the figure is 7.21 min; as for `COCP(=O)(c1ccccc1)c1ccccc1`, 8.67 min; as for `COC(=O)Nc1ccccc1`, 8.47 min.
The same measure for `NC(Cc1ccc(Oc2ccc(O)cc2)cc1)C(=O)O` (stereo not drawn): 5.62 min; for `CC(=C(CCO)SSC(CCO)=C(C)N(C=O)Cc1cnc(C)nc1N)N(C=O)Cc1cnc(C)nc1N`: 4.48 min.
In the case of `CCCCCCCCCCCCCCCC(=O)OCC(O)COP(=O)([O-])OCC[N+](C)(C)C` (stereo not drawn), the LC retention time is 14.9 min.
As to `CCCC[N+](C)(CCCC)CCCC`, the LC retention time was 7.01 min.
As for `CCNCC(O)COc1ccc(CCOC)cc1` (stereo not drawn), the figure is 5.42 min.
The same measure for `CC(C(=O)O)c1ccc(CC(C)(C)O)cc1` (stereo not drawn): 8.21 min.
As for `O=[P+](c1ccccc1)c1ccccc1`, the figure is 8.03 min.
`C[P+](c1ccccc1)(c1ccccc1)c1ccccc1`: the LC retention time is 7.19 min.
Turning to `CCCCCCCCC=CCCCCCCCC[N+](C)(C)C`, the LC retention time was 13.7 min.
Regarding `CCCCCCCC[N+](C)(C)Cc1ccccc1`, the LC retention time was 9.03 min.
The same measure for `CCC(C(N)=O)N1CCCC1=O` (stereo not drawn): 5.14 min; for `Cc1cc(N)no1`: 4.41 min.
Turning to `Cn1cnc([N+](=O)[O-])c1Sc1ncnc2nc[nH]c12`, the LC retention time was 5.37 min.
As to `Nc1nc2c(ncn2CCC(CO)CO)c(=O)[nH]1`, the LC retention time is 2.6 min.
As for `O=c1c(O)c(-c2ccc(O)c(O)c2)oc2cc(O)cc(O)c12`, the figure is 8.07 min; as for `Cc1cc(NS(=O)(=O)c2ccc(N)cc2)no1`, 7.25 min.
As for `CCN(CC)C(=O)Nc1ccc(OCC(O)CNC(C)(C)C)c(C(C)=O)c1` (stereo not drawn), the figure is 6.53 min.
`CCCCCCCCCCCC[N+](C)(C)CCCCCCCCCCCC`: the LC retention time was 15.3 min.
Regarding `COc1cc2c(cc1OC)C(=O)C(CC1CCN(Cc3ccccc3)CC1)C2` (stereo not drawn), the LC retention time was 7.43 min.
As for `CCOC(=O)NS(=O)(=O)c1ccc(C)cc1`, the LC retention time was 9.54 min.
Take `Nc1nc2ccccc2[nH]1`: the LC retention time was 4.79 min.
For `Nc1ccc(S(=O)(=O)Nc2ncccn2)cc1`, the LC retention time is 5.24 min.
With `CCCSc1ccc2nc(NC(=O)OC)[nH]c2c1`, the LC retention time was 8.55 min.
Turning to `CCOC(=O)NCCOc1ccc(Oc2ccccc2)cc1`, the LC retention time was 13.1 min.
On to `CCNc1nc(NC(C)(C)C)nc(SC)n1`, for which the LC retention time was 9.67 min.
For `Oc1ccc(Nc2ccccc2)cc1`, the LC retention time was 10 min.
`Cc1cc(C)nc(NS(=O)(=O)c2ccc(N)cc2)n1`: the LC retention time was 6.12 min.
Regarding `COc1ccc(Cc2cnc(N)nc2N)cc1OC`, the LC retention time was 4.97 min.
As to `Cn1c(=O)c2c(ncn2C)n(C)c1=O`, the LC retention time is 5.51 min.
On to `COC(=O)c1cccc(O)c1`, for which the LC retention time was 7.88 min.
As for `Oc1ccccc1-c1nc2ccccc2[nH]1`, the LC retention time was 6.22 min.
Turning to `COc1ccc(NC(C)=O)cc1`, the LC retention time was 6.51 min.
With `COC(=O)c1ccc(CNS(C)(=O)=O)cc1S(=O)(=O)NC(=O)Nc1nc(OC)cc(OC)n1`, the LC retention time was 10 min.
Regarding `O=C(c1ccccc1)c1ccc(O)cc1O`, the LC retention time was 11 min.
`COC(=O)C(=Cc1ccc(OC)cc1)C(=O)OC`: the LC retention time was 11 min.
For `O=C1c2ccccc2C(=O)C1c1nc2ccccc2cc1O`, the LC retention time is 14.7 min.
Turning to `OCCN(CCO)c1nc(N2CCCCC2)c2nc(N(CCO)CCO)nc(N3CCCCC3)c2n1`, the LC retention time was 7.67 min.
Turning to `CNC(=C[N+](=O)[O-])NCCSCc1ccc(CN(C)C)o1`, the LC retention time was 4.83 min.
For `c1ccc2nc3ccccc3cc2c1`, the LC retention time is 5.78 min.
In the case of `COc1ccc(C(=O)c2ccccc2)c(O)c1`, the LC retention time was 13.5 min.
On to `On1nnc2ccccc21`, for which the LC retention time was 5.24 min.
As for `CC(C(=O)O)c1ccc2cc(O)ccc2c1` (stereo not drawn), the figure is 8.5 min.
Consider `CCCCC(=O)N(Cc1ccc(-c2ccccc2-c2nn[nH]n2)cc1)C(C(=O)O)C(C)C` (stereo not drawn), for which the LC retention time was 11.4 min.
Consider `CC(=O)Nc1ccc(O)c(O)c1`, for which the LC retention time is 4.47 min.
As for `CCN(Cc1cccc(S(=O)(=O)O)c1)c1ccc(C(=C2C=CC(=[N+](CC)Cc3cccc(S(=O)(=O)O)c3)C=C2)c2ccccc2S(=O)(=O)[O-])cc1`, the LC retention time is 7.08 min.
With `COc1ncnc(NS(=O)(=O)c2ccc(N)cc2)c1OC`, the LC retention time was 7.08 min.
Consider `CCCCCCCCCCCCCC[N+](C)(C)Cc1ccccc1`, for which the LC retention time was 12.8 min.
As for `Nc1ncnc2c1ncn2C1CC(O)C(COP(=O)(O)O)O1` (stereo not drawn), the figure is 2.17 min; as for `CN(C)c1ccc(C(c2ccccc2)c2ccc(N(C)C)cc2)cc1`, 9.97 min.
As for `COCC(=O)Nc1cc(Sc2ccccc2)ccc1N=C(NC(=O)OC)NC(=O)OC`, the figure is 13.1 min; as for `CN(C)c1cccc(O)c1`, 4.07 min; as for `CCNC(=O)NC1CCCCC1`, 7.7 min.
As for `Nc1ncnc2c1ncn2CCOCP(=O)(O)O`, the figure is 2.12 min.
Turning to `O=C(NC1CCCCC1)NC1CCCCC1`, the LC retention time was 10.8 min.
For the molecule `O=C(O)c1ccc(-c2ccccc2-c2nn[nH]n2)cc1`, the LC retention time is 8.03 min.
Consider `CCCOP(=O)(OCCC)OCCC`, for which the LC retention time is 10.9 min.
As for `CC12CCC(=O)C=C1CCC1C2CCC2(C)C(O)CCC12` (stereo not drawn), the LC retention time was 11 min.
